{
  "source": "patent US6914049B2",
  "about": "“IGF-binding protein-derived peptide or small molecule” (Bioexpertise, LLC, priority 2001, dated 2005)",
  "key": {"HEK293 cells [1]": {"test_system": "HEK293 cells", "test": "Caspase-3 apoptosis assay on nutritionally stressed HEK293 cells (Examples 1-2)", "format": "cell-based, human", "settings": "FIG. 4A/4B", "description": "Human embryonal kidney 293 (HEK293) cells were grown in Dulbecco's Modified Eagle Medium (D-MEM) supplemented with fetal calf serum at 2%, 4%, 6%, or 8%. When the cells reached 80-85% confluency (cell titer approximately 2.1×10^6 cells per plate), 5 μg of IGFBP-3 or buffer control was added to each plate. The cells were incubated at 37° C. overnight. The next day the medium was removed and the cells were rinsed with trypsin-EDTA (0.25% trypsin, 1 mM EDTA) plus 1× phosphate buffered saline. The cells were centrifuged and the supernatant was removed. ApoAlert caspase-3 assay kit from Clontech Inc (Palo Alto, Calif.) was used to measure apoptosis. The cells were resuspended in 50 μl of chilled cell lysis buffer and incubated on ice for 10 minutes. The resulting cell, lysates were centrifuged at 14000 rpm in a Beckman microcentrifuge for 3 minutes at 4 C. The supernatant was transferred to new tubes and 50 μl of 2× reaction buffer/DTT plus 5 μl of 1 mM caspase-3 substrate was added to each tube. After incubating at 37 C. for 1 hour in a water bath, the samples were read at 405 nm in a microplate reader.\nPeptides derived from IGFBP-3 were tested for pro-apoptotic activity essentially as described in Example 1.\nThe peptides tested are described in Table 1 (peptides marked with an asterisk include a hexahistidine tag)."}, "[2]": {"test": "IMAC of IGFBP-3 on Ni++ and Zn++ resins", "format": "binding", "description": "Panels a and b (FIGS. 5A and 5B) show SDS-PAGE analysis of samples from Ni^++ and Zn^++ IMAC, respectively. FT indicates column flowthrough; W indicates wash; 50 indicates 50 mM imidazole wash; 60 indicates 60 mM imidazole wash; E indicates 1 M imidazole elution buffer; S indicates 1 M EDTA stripping buffer.\nThis previously unknown property of IGFBP-3 is intriguing and has a number of practical implications among which the ability to capture products using immobilized metal affinity (IMAC) resins leads to a number of potential applications in therapeutic, high-throughput discovery, and other research arenas."}, "[3]": {"test": "Binding of IGFBP-3 to IMAC (NTA) resin charged with metal", "settings": "approx. 1 mg loaded", "description": "(§1) Binding of IGFBP-3 to immobilized metal affinity chromatography (IMAC) resin charged with various metals was measured. Approximately 1 mg of IGFBP-3 was loaded onto each column (NTA resin, Sigma Chemical Co., St. Louis, Mo.). The “percentage bound” was calculated by measuring OD280 of load, flow-through, wash and eluate at 60 mM imidazole. Typical recoveries were 85-95%."}, "[4]": {"test": "Binding of IGFBP-3 to IMAC (NTA) resin without metal", "settings": "metal none; approx. 1 mg loaded", "description": "as §1"}, "HEK293 cells [5]": {"test_system": "HEK293 cells", "test": "Co-apoptotic activity of IGFBP-3 and paclitaxel, caspase-3", "format": "cell-based, human", "settings": "200 ng/ml antibody, 30 minutes pretreatment; FIG. 8B", "protocol": "Co-aptotic activity of IGFBP-3 in combination with paclitaxel was measured in the HEK293 assay described in Example 1. HEK293 cells were grown in DMEM plus 8% FCS, then incubated in 0.3 ng/ml of paclitaxel (TAXOL®), 50 ng/ml of IGFBP-3, or a combination of the two. Some cultures were pretreated for 30 minutes with 200 ng/ml of anti-beta-1-integrin antibody (Pharmingen). Caspase-3 was assayed using the ApoAlert caspase-3 kit from Clontech Inc."}, "MDA-MB-231 cells": {"test_system": "MDA-MB-231 cells", "test": "Co-apoptotic activity of IGFBP-3 with cisplatin", "format": "cell-based", "settings": "MDA-MB-231 cells and cisplatin; FIG. 8C"}, "HEK 293 cells [6]": {"test_system": "HEK 293 cells", "test": "Co-apoptotic activity of MBD peptides and paclitaxel, caspase-3", "format": "cell-based, human", "settings": "normalized to MBD2 = 100 on a molar basis; peptide 50 ng/ml, 0.3 ng/ml paclitaxel, 8 hours", "description": "Peptides (50 ng/ml) were added to 80% confluent HEK 293 cells grown in DMEM supplemented with 0.3 ng/ml paclitaxel concurrent with peptide. Caspase-3 activity was measured in cell extracts 8 hours post-addition.\n(§2) Apoptotic activity is expressed in arbitrary caspase-3 units normalized to MBD2 on a molar basis (MBD2 activity was defined as 100 units (avg. of 3 experiments); “nd” indicates “not done”; “ps” indicates phosphoserine. Metal-binding is expressed as a percentage of loaded peptide bound to a Ni-NTA resin; approximately 1-1.5 mg of peptide were loaded on the column. Cell uptake was determined using genetic fusions to GFP as described in Example 9."}, "[7]": {"test": "Metal-binding of peptides to Ni-NTA resin", "settings": "percentage of loaded peptide bound to Ni-NTA resin; 1-1.5 mg loaded", "description": "as §2"}, "HEK293 cells [8]": {"test_system": "HEK293 cells", "test": "Co-apoptotic activity with paclitaxel in presence of plasma proteins", "format": "cell-based, human", "settings": "50 ng/ml, 0.3 ng/ml paclitaxel, eight hours", "description": "Co-apoptotic activity of MBD peptides or IGFBP-3 with paclitaxel was tested in the presence or absence of two plasma proteins; fibronectin and fibrinogen. MBD peptides or IGFBP-3, (50 ng/ml), 0.3 ng/ml paclitaxel, and plasma proteins (200 ng/ml) were added to 80% confluent HEK293 cells grown in DMEM essentially as described in Example 8. Caspase-3 was measured after an eight hour incubation.\nApoptotic activity was calculated in arbitrary caspase-3 units normalized to MBD2 (MBD2 activity was defined as 100 units) Results are summarized in Table 4 (average of 3 experiments)."}, "[9]": {"test_system": "MA-16C mammary adenocarcinoma tumors", "test": "MA-16C mammary adenocarcinoma tumor implants", "format": "in vivo, female C3H mice", "settings": "for Lung Metastases: animals with metastases/animals", "description": "Fragments of MA-16C mammary adenocarcinoma tumors were implanted subcutaneously into female C3H mice (8-11 animals per group). The animals were treated with vehicle alone, IGFBP-3 (4 mg/kg/day for 21 days by subcutaneous injection), doxorubicin (2 mg/kg on days 1 and 8 by intravenous injection), or IGFBP-3 plus doxorubicin. A separate study was performed where the animals were treated with vehicle alone, 5-fluorouracil (10 mg/kg on days 1-5 by intraperitoneal injection), or IGFBP-3 plus 5-fluorouracil. Tumor size was measured at day 18, and the mice were sacrificed at day 21, and the implanted tumors were removed for determination of caspase-3 activity (a marker of apoptosis-only performed for DOX groups)."}, "HEK 293 cells [10]": {"test_system": "HEK 293 cells", "test": "IGF-independence of apoptosis stimulation, caspase-3", "format": "cell-based, human", "description": "HEK 293 cells were cultured under stressed conditions (low serum or in the presence of paclitaxel) with and without IGFBP-3 (50 ng/ml) or MBD2 (50 ng/ml). Apoptosis was assayed using the caspase-3 assay as described in Example 1."}, "[11]": {"test_system": "bax-alpha expression in HEK 293 cells", "test": "Bax-alpha and bcl-2 mRNA expression", "format": "cell-based, human", "settings": "paclitaxel 0.3 ng/ml, 50 ng/ml; FIG. 14A", "description": "HEK 293 cells were cultured as described in Example 1, with the addition paclitaxel (0.3 ng/ml) and either IGFBP-3 or MBD2 at 50 ng/ml. Bax-alpha and bcl-2 mRNA and caspase 3 activity were assayed."}, "[12]": {"test": "Solubility / concentration in phosphate buffered saline", "format": "physicochemical", "settings": "PBS", "excerpt": "Formulation: The central domain of IGFBP-3 is exquisitely sensitive to proteolysis. Due to the limited, solubility of IGFBP-3, its low stability and pronounced tendency to aggregate, the development of suitable formulations and convenient routes of delivery for intact IGFBP-3 is challenging."}},
  "data": [
    {"substance": "IGFBP-3: full-length, 264 aa, IGFBP-3 (insulin-like growth factor binding protein-3)", "values": [
      {"measurement": "pro-apoptotic activity", "setting": "HEK293 cells [1]", "value": "has pro-apoptotic activity"},
      {"measurement": "binding to IMAC resins", "setting": "[2]; Ni^++ and Zn^++ IMAC, SDS-PAGE", "value": "bound both IMAC resins effectively"},
      {"measurement": "imidazole concentration that elutes from the resin", "setting": "[2]; immobilized nickel and zinc", "value": 60, "unit": "mM"},
      {"measurement": "% IGFBP-3 bound", "setting": "[3]; Ca^++", "value": 0.0, "unit": "%"},
      {"measurement": "% IGFBP-3 bound", "setting": "[3]; Co^++", "value": 95.1, "unit": "%"},
      {"measurement": "% IGFBP-3 bound", "setting": "[3]; Fe^2+", "value": 46.6, "unit": "%"},
      {"measurement": "% IGFBP-3 bound", "setting": "[3]; Fe^3+", "value": 55.1, "unit": "%"},
      {"measurement": "% IGFBP-3 bound", "setting": "[3]; Mg^++", "value": 38.8, "unit": "%"},
      {"measurement": "% IGFBP-3 bound", "setting": "[3]; Mn^++", "value": 20.1, "unit": "%"},
      {"measurement": "% IGFBP-3 bound", "setting": "[3]; Ni^++", "value": 97.6, "unit": "%"},
      {"measurement": "% IGFBP-3 bound", "setting": "[3]; Zn^++", "value": 59.5, "unit": "%"},
      {"measurement": "% IGFBP-3 bound", "setting": "[4]", "value": 0.0, "unit": "%"},
      {"measurement": "co-apoptotic activity after anti-beta-1-integrin antibody pretreatment", "setting": "HEK293 cells [5]", "value": "greatly inhibits the co-apoptotic activity"},
      {"measurement": "co-apoptotic activity", "setting": "MDA-MB-231 cells", "value": "failed to demonstrate any co-apoptotic activity"},
      {"measurement": "Apoptotic Activity", "setting": "HEK 293 cells [6]", "value": 585, "unit": "arbitrary caspase-3 units"},
      {"measurement": "Metal-binding", "setting": "[7]", "value": 93, "unit": "percentage"},
      {"measurement": "co-apoptotic activity with Fibrinogen", "setting": "HEK293 cells [8]; Fibrinogen 200 ng/ml", "value": 1.1, "unit": "arbitrary caspase-3 units"},
      {"measurement": "co-apoptotic activity with Fibronectin", "setting": "HEK293 cells [8]; Fibronectin 200 ng/ml", "value": 3.5, "unit": "arbitrary caspase-3 units"},
      {"measurement": "co-apoptotic activity, plasma protein none", "setting": "HEK293 cells [8]; no plasma protein", "value": 100.0, "unit": "arbitrary caspase-3 units"},
      {"measurement": "Tumor Weight", "setting": "[9]; 5FU study, 5-fluorouracil 10 mg/kg ip days 1-5, IGFBP-3 4 mg/kg/day sc", "value": "3147 + 952 mg"},
      {"measurement": "Lung Metastases", "setting": "[9]; 5FU study", "value": "1/7"},
      {"measurement": "Tumor Weight", "setting": "[9]; DOX study, IGFBP-3 4 mg/kg/day sc 21 days, doxorubicin 2 mg/kg iv days 1 and 8", "value": "2632 + 554 mg"},
      {"measurement": "Lung Metastases", "setting": "[9]; DOX study", "value": "1/7"},
      {"measurement": "Caspase-3", "setting": "[9]; DOX study, tumors removed at day 21", "value": "3.79 ± 3.25"},
      {"measurement": "IGF dependence of pro-apoptotic activity", "setting": "HEK 293 cells [10]; 0.3 ng/ml paclitaxel, alone or with Y60L-IGF-I, FIG. 11C", "value": "independent of the presence of IGF"},
      {"measurement": "pro-apoptotic activity under stressed conditions", "setting": "HEK 293 cells [10]; low serum or paclitaxel, 50 ng/ml, FIGS. 11A, 11B", "value": "nearly identical"},
      {"measurement": "bax-alpha expression", "setting": "[11]", "value": "stimulates bax-alpha expression"},
      {"measurement": "maximum solubility in phosphate buffered saline", "setting": "[12]", "value": 7000, "unit": "µg/mL"}
    ]}
  ]
}
